Data from paper PMC6218115, “In Vitro Potency and Preclinical Pharmacokinetic Comparison of All-D-Enantiomeric Peptides Developed for the Treatment of Alzheimer’s Disease” (Journal of Alzheimer's Disease, 2018).
Read-outs that look alike come from different tables or passages of the source. Non-standard residues stand in square brackets, D forms with d. Residues, ends and D or L forms follow the SMILES beside them.

Legend:
Aβ1-42 = target: T1, Aβ1-42 (Homo sapiens, UniProt P05067); test: Aβ aggregation assay (Thioflavin T); type: biochemical; details: for molar excess with regard to Aβ for complete inhibition of Aβ1-42 fibril formation: 10 μM Aβ1-42, ThT; for reduction of the aggregation amplitude: equimolar concentration of peptide relative to Aβ1-42 (10 μM)
T1 construct: Lyophilized Aβ1 - 42 was dissolved in the respective peptide solution; purchased Isoloid GmbH (recombinant) or Bachem AG (synthetic)
Procedure: The potencies of ANK6, tANK6, cANK6r, and D3 to inhibit Aβ1 - 42 aggregation was examined using Thioflavin T (ThT). For this purpose, a buffer solution composed of 20 mM sodium phosphate buffer (pH 7.4) including 50 mM sodium chloride, and 5μM ThT was prepared. Afterwards, ANK6, tANK6, cANK6r, or D3 were diluted in this solution, respectively, to final peptide concentrations between 0.3125 and 80μM (ANK6 and tANK6:0.3125, 0.625, 1.25, 2.5, 5, 10, 20μM; cANK6r: 1.25, 2.5, 5, 10, 20, 40, 80μM; D3:1.17, 2.34, 4.7, 9.4, 18.8, 37.5, 75μM).
The buffer solution only served as negative control (blank). Lyophilized Aβ1 - 42 was dissolved in the respective peptide solution to a final concentration of 10μM. D-peptide solutions with the highest concentration of the respective D-peptide containing all components, except of Aβ1 - 42, served as negative controls. Aβ1 - 42 solved in buffer solution without D-peptide served as positive control. 100μL of each solution were transferred into the wells (triplicates) of 96 well microplates (PS, black, non-binding from Greiner Bio-One, Germany) and fluorescence signals (excitationλ 440 nm, emissionλ 490 nm) were measured in a Polarstar Optima plate reader (BMG, Germany) at 37°C every 20 min for 70 h. Afterwards, the respective blank curves were subtracted from each aggregation curve to exclude background fluorescence. […] The half maximal inhibitory concentration (IC50 value) was determined by plotting the percent inhibition against the respective D-peptides’ concentrations. Datasets were fitted by nonlinear regression (one site – specific binding with Hill slope, GraphPad Prism 5).

[1] = Cell viability assay (MTT), Aβ1-42-induced cytotoxicity; type: cell-based, rat
Procedure: The cells (10,000 cells/well) were incubated on collagen coated 96 well plates (Gibco, Life Technologies, # A11428-03) for growth in adherent cell culture (24 h, 37°C). Oligomeric Aβ was generated by incubating monomeric Aβ1 - 42 in sodium phosphate buffer (10 mM Na2HPO4/NaH2PO4, pH 7.4) at 21°C and 600 rpm agitation for 4.5 h. […] Absorbance readout was detected with a Polarstar Optima plate reader (BMG, Germany) at 570 and 660 nm. The relative cell viability [%] was calculated by normalizing the absorbance readout to the positive control (PC12 cells incubated with buffer). The IC50 value was determined by plotting the relative cell viability [%] against the respective D-peptides' concentrations. Datasets were fitted by nonlinear regression (logistic fit; OriginPro 9.0G).

Aβ1-42 oligomers = target: T2, Aβ1-42 oligomers (Homo sapiens, UniProt P05067); test: Quantitative determination of interference with Aβ aggregate size distribution (QIAD); type: biochemical; details: for Aβ concentrations in fractions 1 and 2 (Aβ monomers): 80 μM Aβ1-42, 20 μM peptide; for Aβ oligomer concentrations in fractions 4 to 6 versus Aβ1-42 alone: 80 μM Aβ1-42 pre-incubated 2.5 h, 20 μM peptide, 40 min, density gradient centrifugation, RP-HPLC UV 214 nm, p≤0.001
T2 construct: Lyophilized Aβ1 - 42 was dissolved in the respective peptide solution; purchased Isoloid GmbH (recombinant) or Bachem AG (synthetic)
Procedure: As soluble Aβ oligomers are currently expected to be the most neurotoxic Aβ species causing AD, the Aβ1 - 42 oligomer elimination potency of ANK6, tANK6, and cANK6r was investigated by the quantitative determination of interference with Aβ aggregate size distribution (QIAD) similar as described before. In short, lyophilized Aβ1 - 42 was dissolved in sodium phosphate buffer to a final concentration of 80μM and incubated for 2.5 h (21°C, 600 rpm) to achieve an Aβ aggregate distribution including monomers, oligomers, and higher molecular aggregates. Then, sodium phosphate buffer (control), 20μM ANK6, 20μM tANK6, or 20μM cANK6r were added and incubated for further 40 min (21°C, 600 rpm). Afterwards, the samples were loaded on top of a density gradient (5 to 50% (w/v) iodixanol, OptiPrep, Axis-Shield, Norway) and ultra-centrifuged for 3 h (4°C, 259.000× g, Optima TL-100, Beckman Coulter, USA). In the following, 14 fractions (140μL each) were taken from top to bottom, whereby the top fractions (1-2) contained Aβ monomers, the middle fractions (4–6) contained the Aβ oligomers of special interest, and the bottom fractions (11–14) contained high molecular weight co-precipitates. The left-over was diluted in 60μL 6 M guanidine hydrochloride (fraction 15). Finally, the Aβ1 - 42 concentrations in all fractions were determined via analytical RP-HPLC (reversed phase-high performance liquid chromatography) and UV absorbance detection at 214 nm.

[2] = Blood-brain barrier values (logBB, Kin, Vi, PS); type: in vivo, C57Bl/6N mice; details: mice; for logBB, blood-brain equilibrium distribution: after i.v. administration 3.3 mg/kg, log(AUClast,br/AUClast,pl); for PS, permeability surface-area product / Vin / Kin, unidirectional influx rate constant: after i.v. administration; for PS, permeability surface-area product: CBF 1.07 mL/(g*min); for Vin: graphical determination (initial distribution volume in brain); for Kin, unidirectional influx rate constant: graphical determination, linear range 0-240 min (ANK6, cANK6r), 0-1440 min (tANK6)
Procedure: To allow for direct comparison with other peptides, four universally applied BBB parameters were determined: the blood-brain equilibrium distribution (logBB), the […] influx rate constant (Kin), the initial distribution volume in brain (Vi), and the permeability surface-area product (PS). Based on data of the concentration-time profiles and pharmacokinetic parameters after i.v. administration, the BBB parameters were calculated with the help of the formulas listed in Table 2. Graphical determination of Kin and Vi was conducted by plotting the brain concentration to plasma concentration ratio at certain time points (Cb (t)/Cp (t) [mL/g]) on the y-axis against the exposure time (AUCp (t)/Cp (t) [min]) on the x-axis. The linear range for Kin and Vi determination was between 0 and 240 min for ANK6 and cANK6r (R^2: 0.9970, 0.9996) and between 0 and 1440 min for tANK6 (R^2: 0.9758). PS was calculated on the basis of a murine cerebral blood flow (CBF) of 1.07 mL/(g*min).

[3] = 10 μM Aβ1-42, 5 μM ThT, 20 mM sodium phosphate pH 7.4, 50 mM NaCl, 37°C, 70 h, triplicates, nonlinear regression, read-out: IC50, inhibition of Aβ1-42 aggregation into ThT-positive fibrils

T1 sequence (P05067 672-713 limits assumed): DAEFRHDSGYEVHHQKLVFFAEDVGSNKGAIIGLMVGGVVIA
T2 sequence (P05067 672-713 limits assumed): as above

In the case of CC[C@@H](C)[C@@H](NC(=O)[C@@H](CCCNC(=N)N)NC(=O)[C@@H](CCCCN)NC(=O)[C@H](N)CCCNC(=N)N)C(=O)N[C@H](CCCNC(=N)N)C(=O)N[C@H](CC(C)C)C(=O)N[C@@H](C(=O)N[C@@H](C(=O)N[C@H](CCCCN)C(=O)N[C@H](CCCCN)C(=O)N[C@H](CCCCN)C(=O)N[C@H](CCCNC(=N)N)C(=O)N[C@H](CCCNC(=N)N)C(=O)N[C@H](CCCCN)C(=O)N[C@H](CCCNC(=N)N)C(=O)N[C@@H](C(=O)N[C@H](CCCNC(=N)N)C(=O)N[C@H](CC(C)C)C(=O)N[C@@H](C(=O)N[C@@H](C(=O)N[C@H](CCCCN)C(=O)N[C@H](CCCCN)C(=O)N[C@H](CCCCN)C(=O)N[C@H](CCCNC(=N)N)C(N)=O)[C@H](C)O)C(C)C)[C@H](C)CC)[C@H](C)O)C(C)C [tANK6] (H-[dR][dK][dR][dI][dR][dL][dV][dT][dK][dK][dK][dR][dR][dK][dR][dI][dR][dL][dV][dT][dK][dK][dK][dR]-NH2; N-terminus assumed), the IC50 (Aβ1-42; [3]) is reported as 2.1 µM, the “molar excess with regard to Aβ for complete inhibition of Aβ1-42 fibril formation” value (Aβ1-42) is reported as “two-fold molar excess” and the “reduction of the aggregation amplitude” value (Aβ1-42) is reported as “more than 97%”. The IC50 [1] was 4.4 µM, the “Aβ concentrations in fractions 1 and 2 (Aβ monomers)” value (Aβ1-42 oligomers) was “reduced the Aβ monomer concentrations much stronger” and the “Aβ oligomer concentrations in fractions 4 to 6 versus Aβ1-42 alone” value (Aβ1-42 oligomers) was “significantly lowered”. For the same compound, the “logBB, blood-brain equilibrium distribution” value [2] was 0.335, the “PS, permeability surface-area product” value [2] was 0.0016 mL/g/min and the Vin [2] was 0.5833 mL/g. For the same compound, the “Kin, unidirectional influx rate constant” value [2] was 0.0016 mL/g/min.

For CC[C@@H](C)[C@@H](NC(=O)[C@@H](CCCNC(=N)N)NC(=O)[C@@H](CCCCN)NC(=O)[C@H](N)CCCNC(=N)N)C(=O)N[C@H](CCCNC(=N)N)C(=O)N[C@H](CC(C)C)C(=O)N[C@@H](C(=O)N[C@@H](C(=O)N[C@H](CCCCN)C(=O)N[C@H](CCCCN)C(=O)N[C@H](CCCCN)C(=O)N[C@H](CCCNC(=N)N)C(N)=O)[C@H](C)O)C(C)C [ANK6] (H-[dR][dK][dR][dI][dR][dL][dV][dT][dK][dK][dK][dR]-NH2; N-terminus assumed), the IC50 (Aβ1-42) was 3.6 µM, the “molar excess with regard to Aβ for complete inhibition of Aβ1-42 fibril formation” value (Aβ1-42) was “two-fold molar excess” and the “reduction of the aggregation amplitude” value (Aβ1-42) was “more than 97%”. For the same compound, the IC50 ([1]; PC12 cells, MTT, 1 μM oligomeric Aβ1-42, peptide 0.008-15 μM, overnight 37°C, quintuplicates, logistic fit, read-out: IC50, reduction of Aβ1-42-induced cytotoxicity (cell viability)) was 11.2 µM, the “Aβ concentrations in fractions 1 and 2 (Aβ monomers)” value (Aβ1-42 oligomers) was “reduced the Aβ monomer concentrations much stronger” and the “Aβ oligomer concentrations in fractions 4 to 6 versus Aβ1-42 alone” value (Aβ1-42 oligomers) was “significantly lowered”. The “logBB, blood-brain equilibrium distribution” value [2] was “–0.401”, the “PS, permeability surface-area product” value [2] was 0.0003 mL/g/min and the Vin [2] was 0.0575 mL/g. The “Kin, unidirectional influx rate constant” value [2] was 0.0003 mL/g/min.

In the case of CC[C@@H](C)[C@H]1NC(=O)[C@@H](CCCNC(=N)N)NC(=O)[C@@H](CCCCN)NC(=O)[C@@H](CCCNC(=N)N)NC(=O)[C@@H](CCCNC(=N)N)NC(=O)[C@@H](CCCNC(=N)N)NC(=O)[C@@H](CCCCN)NC(=O)[C@@H](CCCCN)NC(=O)[C@@H](CCCCN)NC(=O)[C@@H]([C@H](C)O)NC(=O)[C@@H](C(C)C)NC(=O)[C@@H](CC(C)C)NC(=O)[C@@H](CCCNC(=N)N)NC1=O [cANK6r] (cyclo([dR][dK][dR][dI][dR][dL][dV][dT][dK][dK][dK][dR][dR])), the IC50 (Aβ1-42; [3]) is reported as 3.7 µM, the “molar excess with regard to Aβ for complete inhibition of Aβ1-42 fibril formation” value (Aβ1-42) is reported as “about eight-fold molar excess” and the IC50 [1] is reported as 14 µM. The “Aβ concentrations in fractions 1 and 2 (Aβ monomers)” value (Aβ1-42 oligomers) was “only slightly lowered”, the “Aβ oligomer concentrations in fractions 4 to 6 versus Aβ1-42 alone” value (Aβ1-42 oligomers) was “significantly lowered” and the “logBB, blood-brain equilibrium distribution” value [2] was “–0.329”. For the same compound, the “PS, permeability surface-area product” value [2] was 0.0003 mL/g/min, the Vin [2] was 0.0396 mL/g and the “Kin, unidirectional influx rate constant” value [2] was 0.0003 mL/g/min.
